Experimental data taken from patent US6770279B1, “TNFα antagonists and cyclosporin in therapy of rheumatoid arthritis” (The Kennedy Institute of Rheumatology, priority 1992, dated 2004).

Legend:
[1] = system: collagen type II induced arthritis in the DBA/1 mouse; assay: Collagen type II induced arthritis: clinical score; format: in vivo; conditions: Example 7B
Procedure: (§1) Male DBA/1 mice were immunized intradermally with 100 μg of bovine type II collagen emulsified in complete Freund's adjuvant (Difco Laboratories, East Molsey, UK). The mean day of onset of arthritis was approximately one month after immunization. […] Arthritis was monitored for paw-swelling (measured with calipers) for 10 days, after which the mice were sacrificed and joints were processed for histology.
Clinical Score was assessed on the following scale: 0=normal; 1=slight swelling and/or erythema; 2=pronounced edematous swelling; and 3=joint rigidity. […]
as §1, with “UK).” for “UK). The mean day of onset of arthritis was approximately one month after immunization.”, “paw swelling” for “paw-swelling”
Clinical score was assessed on the following scale: 0=normal; 1=slight swelling and/or erythema; 2=pronounced edematous swelling, and 3=joint rigidity. […]
as §1, with “UK).” for “UK). The mean day of onset of arthritis was approximately one month after immunization.”, “paw swelling” for “paw-swelling”, “histology. […]” for “histology.”

[2] = system: TNF expression in the joints; assay: Immunohistochemical studies of TNF expression in joints; format: in vivo, mouse; conditions: preliminary immunohistochemical studies; mice with collagen-induced arthritis
Description: These findings indicate that rolipram is effective in established collagen-induced arthritis and may therefore be useful in the treatment of RA.

[3] = system: collagen type II induced arthritis in the DBA/1 mouse; assay: Collagen type II induced arthritis: limb involvement (number of arthritic limbs); format: in vivo; conditions: Example 2B; anti-TNF mAb 300 μg; methylprednisolone acetate 2 mg/kg
Procedure: Male DBA/1 mice were immunized intradermally at 8-12 weeks of age with 100 μg type II collagen emulsified in Freund's complete adjuvant (Difco Laboratories, East Molsey, UK). Day one of arthritis was considered to be the day that erythema and/or swelling was first observed in one or more limbs. Arthritis became clinically evident around 30 days after immunization with type II collagen. For each mouse, treatment was started on the first day that arthritis was observed and continued over a 10 day period, after which the mice were sacrificed and joints were processed for histology. Monoclonal antibody (mAb) treatment was administered on days 1, 4, and 7. For anti-TNF antibody, TN3-19.12, a neutralizing hamster IgG1 anti-TNFα/β monoclonal antibody (mAb), was used (Sheehan, K. C. et al., J. Immunology 142:3884-3893 (1989)). The isotype control was L2. The anti-TNF antibody and the isotype control were provided by R. Schreiber, Washington University Medical School (St. Louis, Mo., USA), in conjunction with Celltech (Slough, UK). The cell-depleting anti-CD4 monoclonal antibody (rat IgG2b) consisted of a 1:1 mixture of YTS 191.1.2 and YTA 3.1.2, provided by H. Waldmann (University of Cambridge, UK) (Galfre, G. et al., Nature 277: 131-133 (1979); Cobbold, S. P. et al., Nature 312: 548-551 (1984); Qin, S. et al., European J. Immunology 17:1159-1165 (1987)).
In collagen-induced arthritis, as in RA, it is usual for additional limbs to become involved after the initial appearance of clinical disease and new limb involvement is an important indicator of the progression of the disease. […]
Male DBA/1 mice were immunized intradermally with 100 μg of bovine type II collagen emulsified in complete Freund's adjuvant (Difco Laboratories, East Molsey, UK). […] Arthritis was monitored for clinical score and paw swelling (measured with calipers) for 10 days, after which the mice were sacrificed and joints were processed for histology. […]

COc1ccc(C2CNC(=O)C2)cc1OC1CCCC1 (stereo not drawn) [rolipram]
mean clinical score on day 10 (±SE) ([1]; rolipram 3 mg/kg twice daily, anti-TNF mAb 300 μg days 1, 4, 7, maximum score 12): 1.0±0.3 | severity of arthritis (clinical score) ([1]; rolipram 3, 5 or 10 mg/kg i.p. twice daily, vs Cremophor EL): significant reduction in the severity of arthritis | TNF expression in the joints [2]: down-regulation of TNF expression in the joints

CC(=O)OCC(=O)[C@@]1(O)CC[C@H]2[C@@H]3C[C@H](C)C4=CC(=O)C=C[C@]4(C)[C@H]3[C@@H](O)C[C@@]21C [Methylprednisolone acetate, methylprednisolone acetate]
Increase (%) in limbs affected [3]: 33% | Limbs Affected (mean ± SEM) Day 1 [3]: 1.00 ± 0.00 | Limbs Affected (mean ± SEM) Day 10 [3]: 1.50 ± 0.22
